Experimental data from patent EP4023291A1, “FAT METABOLISM PROMOTER” (Asahi Group Holdings, Ltd., priority 2019, dated 2021).

Tests used:
3T3-L1 cells = test: Test 4: lipolysis test, glycerol released into culture supernatant of differentiated adipocytes; format: cell-based, Mouse; conditions: for amount of released glycerol, comparison with control: against Comparative Example 4 (0.1% ethanol), one-way ANOVA, Dunnett's test; for control ratio: amount of glycerol relative to medium of Comparative Example 4, Average: culture 2 days, 0.1% ethanol, 0.1 µM noradrenaline, ethyl caproate 0/0.1/1/10 ppm in Comparative Example 5/Examples 6/7/8
Description: In the present test, the lipolysis-promoting effect of the promoter of the present embodiment was tested by quantifying glycerol released into culture supernatant through decomposition of fat accumulated in adipocytes. Mouse embryonic 3T3-L1 cells, which are progenitor cells of adipocytes and were used in the present test, were induced to differentiate to form adipocytes. The present test was carried out in accordance with a method described in "Effects of Quercetin Glucosides on Dietinduced Obesity in Mice - The Lipolytic Activity of Quercetin -" (Tateishi et al., Japanese Pharmacology & Therapeutics 2009; 37(2): 123-131). The specific testing method of the present test and the results of the test are shown in the following.
In the present test, first, 3T3-L1 cells were suspended in Dulbecco's Modified Eagle medium (manufactured by FUJIFILM Wako Pure Chemical Corporation) (hereinafter, also referred to as "DMEM medium") to which penicillin-streptomycin (manufactured by Thermo Fisher Scientific, Inc.) and fetal bovine serum (manufactured by Sigma-Aldrich Co. LLC) had been added to reach concentrations of 100 Unit/mL, 100 µg/mL, and 10%, respectively, and seeded in a 12-well plate.
The 3T3-L1 cells were cultured under conditions of 5% CO2 and 37°C until the cells became confluent (a state in which cells are totally covering the surface of a culture vessel). Two days after becoming confluent, the medium was exchanged with a medium obtained by adding dexamethasone (manufactured by NACALAI TESQUE, INC.), 3-isobutyl-1-methylxanthine (manufactured by NACALAI TESQUE, INC.), and insulin (manufactured by NACALAI TESQUE, INC.) to DMEM medium to reach concentrations of 0.25 µM, 0.5 mM, and 10 µg/mL, respectively. Thereafter, the 3T3-L1 cells were cultured at 5% CO2 and 37°C for 2 days to induce the cells to differentiate into adipocytes.
After the induction of differentiation, medium exchange with a medium obtained by adding insulin to DMEM medium to reach a concentration of 5 µg/mL was performed every 2 or 3 days, and differentiation was maintained by culturing at 5% CO2 and 37°C for 12 days in total. Thereafter, a medium is prepared as a test medium by adding penicillin-streptomycin (manufactured by Thermo Fisher Scientific, Inc.) and fetal bovine serum (manufactured by Sigma-Aldrich Co. LLC) to DMEM medium free of phenol red (1.0 g/L glucose) (manufactured by NACALAI TESQUE, INC.) to reach concentrations of 100 Unit/mL, 100 µg/mL, and 10%, respectively, and components shown in Table 4 were added to the test medium to reach concentrations shown in Table 4. The medium for the 3T3-L1 cells after induction of differentiation was exchanged with a medium to which components of any of Comparative Examples 4, 5 or Examples 6 to 8 had been added, and the 3T3-L1 cells were cultured at 5% CO2 and 37°C for 2 days.
Ethyl caproate manufactured by Tokyo Chemical Industry Co., Ltd. was used for the ethyl caproate, ethanol manufactured by FUJIFILM Wako Pure Chemical Corporation was used for the ethanol, and noradrenaline manufactured by NACALAI TESQUE, INC. was used for the noradrenaline.
After culturing for 2 days, the culture supernatant was collected, and glycerol released into the culture supernatant was quantified with a Glycerol Assay kit (Cell-Based) (manufactured by Abcam). The ratio of the amount of glycerol in each medium to which the components of any of Comparative Example 5 and Examples 6 to 8 had been added relative to the amount of glycerol in the medium to which the component of Comparative Example 4 had been added (hereinafter, referred to as "control ratio") was determined to obtain the average ± standard error.
In the present test, statistical test was carried out by multiple comparison test with one-way analysis of variance (one-way ANOVA) followed by Dunnett's test. Significance levels of p < 0.05 were each determined to be a significant difference. These analyses were all performed with SPSS version 23 (manufactured by SPSS).

TRPA1 [1] = target: T1, TRPA1 (Homo sapiens, UniProt O75762); test: Test 5: TRPA1 activity test, calcium imaging in cells with forced expression of TRPA1; format: cell-based
T1 construct: expressed in transfected cells; host or cells: HEK293T cells, transient transfection with Lipofectamine 2000
Description: In the present test, the contribution of the lipid metabolism promoter of the present embodiment to TRPA1 activity was examined by checking the activation of the temperature-sensitive ion channel TRPA1 with a calcium imaging method. The specific testing method of the present test and the results of the test are shown in the following. […]
(§1) Ethyl caproate was added to HEPES buffer (10 mM HEPES, 130 mM NaCl, 5 mM KCl, 10 mM glucose, 2 mM CaCl2·2H2O, 1.2 mM MgCl2·6H2O, pH = 7.40), and thus a test solution of Example 9 containing ethyl caproate in a concentration of 255 ppm was obtained. […] Measurement of fluorescence intensity for the cells with forced expression of TRPA1 was initiated, and, 20 seconds thereafter, 50-µL portions of each of the test solutions prepared were added to three wells. After the lapse of a predetermined period of time, the measurement of fluorescence intensity was completed, and ratios of fluorescence intensity at each time after addition of a test solution as the average of fluorescence intensity before addition of a test solution was assumed as 1 (hereinafter, also referred to as "RFU (relative fluorescence units)") were determined from measurements of fluorescence intensity. Further, change rates in RFU before and after addition of a test solution (hereinafter, also referred to as "ΔRFU") were determined at each time after addition of a test solution. […]

[2] = tested on: HEK293T cells without transfer of the TRPA1 gene; test: Test 5: TRPA1 activity test, reference in non-transformed cells; format: cell-based, human; conditions: ethyl caproate 255 ppm test solution, 100 ppm in well
Description: (§2) In the present test, first, human embryonic HEK293T cells were first suspended in DMEM medium to which penicillin-streptomycin (manufactured by Thermo Fisher Scientific, Inc.) and fetal bovine serum (manufactured by Sigma-Aldrich Co. LLC) were added to reach concentrations of 100 Unit/mL, 100 µg/mL, and 10%, respectively, seeded in a 96-well plate at a volume of 100 µL/well, and cultured under conditions of 5% CO2 and 37°C until a cell density reached 70 to 90%.
as §1, with “intensity.” for “intensity. Further, change rates in RFU before and after addition of a test solution (hereinafter, also referred to as "ΔRFU") were determined at each time after addition of a test solution.”

TRPA1 [3] = target: T1, TRPA1; test: Test 9: TRPA1 activity test, cells with forced expression of TRPA1; format: cell-based; conditions: for Δ RFU in cells with forced expression of TRPA1: maximum values, average ± standard deviation, concentration after adding per Table 7 (10.2-28.2 ppm); for Δ RFU in cells with forced expression of TRPA1 / Δ RFU in non-transformed cells: ratio of maximum ΔRFU values, concentration after adding per Table 7
Description: as §2
Thereafter, the DMEM medium in each well was completely removed, to which OptiMEM medium (manufactured by Thermo Fisher Scientific, Inc.) containing the gene transfer reagent Lipofectamine 2000 (manufactured by Thermo Fisher Scientific, Inc.) and a hTRPA1 gene expression plasmid was added at a volume of 50 µL/well. Then, culture was performed under conditions of 37°C and 5% CO2 for approximately 24 hours to transfer the TRPA1 gene into the HEK293T cells. The contents of Lipofectamine 2000 and the hTRPA1 gene expression plasmid per 50 µL of the OptiMEM medium were 0.3 µL and 400 ng, respectively. The TRPA1 gene can be confirmed with a DNA database such as GenBank.
When the density of the HEK293T cells transfected in the described manner (hereinafter, also referred to as "cells with forced expression of TRPA1") reached 90 to 100%, FLIPR Calcium 6 Assay Kit (manufactured by Molecular Devices, LLC.), a calcium-sensitive fluorescent dye, was added at a volume of 50 µL/well, and culture was performed under conditions of 37°C and 5% CO2 for 2 hours. Here, the expression of TRPA1 on cell membranes was confirmed by response to cinnamaldehyde (manufactured by Wako Pure Chemical Industries, Ltd.), which is a known TRPA1 ligand. DMSO was used for dilution of cinnamaldehyde, and the DMSO concentration in each well was set to 0.1% in view of cytotoxicity.
Ethyl caproate was added to HEPES buffer (10 mM HEPES, 130 mM NaCl, 5 mM KCl, 10 mM glucose, 2 mM CaCl2·2H2O, 1.2 mM MgCl2·6H2O, pH = 7.40), and thus a test solution of Example 9 containing ethyl caproate in a concentration of 255 ppm was obtained. For a negative control (N.C.), HEPES buffer was used as a test solution of Comparative Example 6. Measurement of fluorescence intensity for the cells with forced expression of TRPA1 was initiated, and, 20 seconds thereafter, 50-µL portions of each of the test solutions prepared were added to three wells. After the lapse of a predetermined period of time, the measurement of fluorescence intensity was completed, and ratios of fluorescence intensity at each time after addition of a test solution as the average of fluorescence intensity before addition of a test solution was assumed as 1 (hereinafter, also referred to as "RFU (relative fluorescence units)") were determined from measurements of fluorescence intensity. Further, change rates in RFU before and after addition of a test solution (hereinafter, also referred to as "ΔRFU") were determined at each time after addition of a test solution. Fluorescence intensity was measured by using a FlexStation 3 (manufactured by Molecular Devices, LLC.). The measurement of fluorescence intensity was performed at room temperature, and each test solution was used for adding to wells at room temperature, too.
(§3) In the present test, test solutions of Examples 13 to 28 and Comparative Examples 9 to 14 described later were used in place of the test solutions used in First Testing Method of Test 5. Except that, the amount of change in RFU before and after addition of each test solution (ΔRFU) was determined for cells with forced expression of TRPA1 and non-transformed cells with the same method as First Testing Method of Test 5.
The test solutions of Examples 13 to 28 and Comparative Examples 10 to 14 used in the present test were each obtained by adding a compound listed in Table 7 into HEPES buffer. […]

non-transformed cells = test: Test 9: TRPA1 activity test, non-transformed cells; format: cell-based, human; conditions: maximum values, average ± standard deviation; concentration after adding per Table 7 (10.2-28.2 ppm)
Description: Also for HEK293T cells without transfer of the TRPA1 gene (hereinafter, also referred to as "non-transformed cells"), as a reference, 50 µL of the test solution of Example 9 and 50 µL of the test solution of Comparative Example 6 were added with the same method as performed for the cells with forced expression of TRPA1, and ΔRFU was determined.
as §3
The test solutions of Examples 13 to 28 and Comparative Examples 10 to 14 used in the present test were each obtained by adding a compound listed in Table 7 into HEPES buffer. The octanol/water partition coefficient (log Pow) of each compound listed in Table 7 was calculated with XlogP (Shanghai Institute of Organic Chemistry, Chinese Academy of Sciences, http://WWW.sio-ccbg.ac.cn/software/xlogp3/), which is software using the XlogP3 algorithm. Each test solution was added as 50-µL portions to wells, and the concentrations of the compounds were set to concentrations shown in Table 7. HEPES buffer was used as the test solution of Comparative Example 9 for a negative control (N.C.), and added as 50-µL portions to wells.
Table 7 and Figure 18 show average ± standard deviation of maximum values of ΔRFU. In the present test, SoftMax Pro Vr. 6 (manufactured by Molecular Devices, LLC.) and Excel (manufactured by Microsoft Corporation) were used for data analysis.

T1 sequence (O75762 whole entry): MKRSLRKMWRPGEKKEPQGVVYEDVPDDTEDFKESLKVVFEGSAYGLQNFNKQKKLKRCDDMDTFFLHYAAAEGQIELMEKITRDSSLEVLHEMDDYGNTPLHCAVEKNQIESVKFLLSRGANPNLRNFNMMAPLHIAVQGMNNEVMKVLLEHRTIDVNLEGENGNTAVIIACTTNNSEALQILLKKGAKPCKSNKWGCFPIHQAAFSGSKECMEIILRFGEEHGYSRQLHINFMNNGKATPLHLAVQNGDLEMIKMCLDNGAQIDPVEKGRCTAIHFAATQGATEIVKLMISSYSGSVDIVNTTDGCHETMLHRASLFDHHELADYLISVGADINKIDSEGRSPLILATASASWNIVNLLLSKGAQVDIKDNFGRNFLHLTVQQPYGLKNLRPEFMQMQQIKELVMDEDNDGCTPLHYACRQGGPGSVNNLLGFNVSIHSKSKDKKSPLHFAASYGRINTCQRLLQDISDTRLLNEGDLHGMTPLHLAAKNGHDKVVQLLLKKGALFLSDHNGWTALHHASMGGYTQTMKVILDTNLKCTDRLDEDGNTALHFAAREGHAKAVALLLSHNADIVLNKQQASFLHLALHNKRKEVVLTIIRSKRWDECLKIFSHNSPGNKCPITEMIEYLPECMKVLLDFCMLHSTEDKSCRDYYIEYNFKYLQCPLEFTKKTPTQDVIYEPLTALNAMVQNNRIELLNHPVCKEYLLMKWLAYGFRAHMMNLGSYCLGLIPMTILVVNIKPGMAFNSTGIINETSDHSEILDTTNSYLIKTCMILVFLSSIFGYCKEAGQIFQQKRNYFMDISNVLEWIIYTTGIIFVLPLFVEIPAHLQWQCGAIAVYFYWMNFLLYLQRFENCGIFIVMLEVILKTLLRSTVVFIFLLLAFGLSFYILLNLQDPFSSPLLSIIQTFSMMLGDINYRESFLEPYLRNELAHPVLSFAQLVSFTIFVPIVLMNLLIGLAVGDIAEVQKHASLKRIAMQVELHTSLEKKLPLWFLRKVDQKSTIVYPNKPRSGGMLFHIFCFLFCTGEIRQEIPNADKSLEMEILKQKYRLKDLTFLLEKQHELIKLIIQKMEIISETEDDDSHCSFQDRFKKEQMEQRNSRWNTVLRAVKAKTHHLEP

Compound	control ratio: amount of glycerol relative to medium of Comparative Example 4, Average (3T3-L1 cells)	Δ RFU in cells with forced expression of TRPA1 (TRPA1 [3])	Δ RFU in cells with forced expression of TRPA1 / Δ RFU in non-transformed cells (TRPA1 [3])	Δ RFU in non-transformed cells (non-transformed cells)	also measured
CCCCCC(=O)OCC [Example 7, Ethyl caproate]	1.089	–	–	–	amount of released glycerol, comparison with control (3T3-L1 cells): increasing tendency in the amount of released glycerol
CCCCCC(=O)OCC [Example 8, Ethyl caproate]	1.118	–	–	–	amount of released glycerol, comparison with control (3T3-L1 cells): significant increase in the amount of released glycerol
NC[C@H](O)c1ccc(O)c(O)c1 [Comparative Example 5, Noradrenaline, reference compound]	1.002	–	–	–	amount of released glycerol, comparison with control (3T3-L1 cells): almost no difference in the amount of released glycerol
CCCCCC(=O)OCC [Example 6, Ethyl caproate]	1.063	–	–	–	–
CCCCCC(=O)OCC [Example 9, Ethyl caproate]	–	–	–	–	cellular response after co-addition of the TRPA1 inhibitor HC03001 (TRPA1 [1]; cells with forced expression of TRPA1, Figure 11): disappeared; cellular response of cells with forced expression of TRPA1 (TRPA1 [1]; ethyl caproate 100 ppm in well, Figures 9 and 10): evoked cellular response; maximum value of ΔRFU after addition of test solution, Average [2]: 0.046
CCCC(=O)OCCC(C)C [Example 18, Isoamyl butyrate]	–	2.0 ± 0.4	19.3	0.1 ± 0.0	–
CCCOC(C)=O [Comparative Example 11, Propyl acetate, reference compound]	–	0.2 ± 0.0	0.8	0.3 ± 0.0	–
CCCCCC(=O)OCC [Example 22, Ethyl caproate]	–	2.2 ± 0.8	12.7	0.2 ± 0.0	–
CCCCC(=O)OCC [Example 19, Ethyl valerate]	–	0.6 ± 0.1	5.6	0.1 ± 0.0	–
CCC(C)COC(C)=O (stereo not shown) [Example 15, 2-Methylbutyl acetate]	–	0.6 ± 0.0	2.9	0.2 ± 0.0	–
CCOC(=O)CC [Comparative Example 12, Ethyl propionate, reference compound]	–	0.3 ± 0.0	0.9	0.3 ± 0.1	–
